Laboratory results from patent publication US8987281B2, “Methods of treating cancer” (Endocyte, Inc., priority 2010, dated 2015).

System: KB tumors
Assay: In vivo antitumor experiments, s.c. KB tumors in nu/nu mice
Settings: i.v., EC145 1 μmol/kg/injection TIW 2 weeks
Protocol: Four to six week-old female nu/nu mice (Charles River, Wilmington, Mass.) or six to seven week-old female Balb/c mice (Harlan Sprague Dawley, Inc., Indianapolis, Ind.) were maintained on a standard 12 h light-dark cycle and fed ad libitum with folate-deficient chow (Harlan diet #TD00434, Harlan Teklad, Madison, Wis.) for the duration of the experiment. FR-positive human nasopharyngeal KB cells and human ovarian IGROV cells were grown continuously as a monolayer, using folate-free RPMI medium (FFRPMI) containing 10% heat-inactivated fetal calf serum (HIFCS) at 37° C. in a 5% CO2/95% air-humidified atmosphere with no antibiotics. Syngeneic FR-positive Madison 109 (M109) lung carcinoma cells were generated from M109 tumors and cultured for a few days in FFRPMI containing 10% HIFCS for a few days before implantation in mice. KB cells (1×10^6 per nu/nu mouse), M109 cells (1×10^6 per Balb/c mouse), IGROV cells (4×10^6 per nu/nu mouse) in 100 μL were injected in the subcutis of the dorsal medial area. Mice were divided into groups of five, and test articles were freshly prepared and injected through the lateral tail vein under sterile conditions in a volume of 200 μL of phosphate-buffered saline (PBS). […] The mice in the control groups received no treatment. Growth of each s.c. tumor was followed by measuring the tumor three times per week during treatment and twice per week thereafter until a volume of 1500 mm^3 was reached. Tumors were measured in two perpendicular directions using Vernier calipers, and their volumes were calculated as 0.5×L×W^2, where L=measurement of longest axis in mm and W=measurement of axis perpendicular to L in mm. As a general measure of toxicity, changes in body weights were determined on the same schedule as tumor volume measurements. Survival of animals was monitored daily. Animals that were moribund (or unable to reach food or water) were euthanized by CO2 asphyxiation. All in vivo studies were performed in accordance with the American Accreditation Association of Laboratory Animal Care guidelines.
For individual tumors, a partial response (PR) was defined as volume regression>50% but with measurable tumor (>2 mm^3) remaining at all times. Complete response (CR) was defined as a disappearance of measurable tumor mass (<2 mm^3) at some point until the end of the study. Cures were defined as CR's without tumor re-growth within the study time frame.
See FIG. 1 for tumor response and FIG. 2 for weight change during the treatment period.
See FIG. 3 for tumor response and FIG. 4 for weight change during the treatment period.
See FIG. 5 for tumor response and FIG. 6 for weight change during the treatment period.

[1] = KB tumors 144-212 mm^3, five animals per group, Docetaxel 10 mg/kg TIW 1 week (FIG. 1)
[2] = KB tumors 111-173 mm^3, five animals per group, Paclitaxel 20 mg/kg TIW in Cremophor/ethanol 1 week (FIG. 5)

| SMILES | Cures [1] | complete responses [1] | partial responses [1] | Cures [2] | complete responses [2] |
| --- | --- | --- | --- | --- | --- |
| CC(=O)O[C@@]12CO[C@@H]1C[C@H](O)[C@@]1(C)C(=O)[C@H](O)C3=C(C)[C@@H](OC(=O)[C@H](O)[C@@H](NC(=O)OC(C)(C)C)c4ccccc4)C[C@@](O)([C@@H](OC(=O)c4ccccc4)[C@H]21)C3(C)C [Docetaxel, docetaxel] | no | no | no | – | – |
| CC(=O)O[C@H]1C(=O)[C@@]2(C)[C@H]([C@H](OC(=O)c3ccccc3)[C@]3(O)C[C@H](OC(=O)[C@H](O)[C@@H](NC(=O)c4ccccc4)c4ccccc4)C(C)=C1C3(C)C)[C@]1(OC(C)=O)CO[C@@H]1C[C@@H]2O [Paclitaxel, paclitaxel] | – | – | – | 3 | 2 |
